Source: patent US5106868A, “Epoxycyclohexenone amides with antibacterial activity” (Kyowa Hakko Kogyo Kabushiki Kaisha, priority 1990, dated 1992)
Values after ≈ are worked out from the molar mass of the structure shown.

Tests used:
MCF7 cells (ATCC HTB22) = experiment: Anti-tumour activity, MCF7 cell growth inhibition (neutral red); format: cell-based; conditions: Homo sapiens, 72 hours, 37° C., absorptivity at 550 nm
Description: MCF7 cells (ATCC HTB22) was add to RPMI-1640 medium (commercial product of Gibco, U.S.A.) containing 10 % fetal calf serum, insulin (10 μg/ml) and estradiol (10^-8 M) (hereinafter referred to as medium A) to prepare a cell suspension containing 4.5×10^4 cell/ml.
On each occasion, 0.1 ml of the suspension was poured into each well of a 96 well microtitre plate and incubated at a temperature of 37° C. for 20 hours in a carbon dioxide incubator. Then a test compound (each 0.05 ml) was added to each well, followed by incubation similarly for 72 hours. After removal of the supernatant, another medium (0.1 ml) containing medium A and 0.02% neutral red was added to the material for incubating similarly for one hour to dye the cells. The supernatant was removed, and the residue was washed once with physiological Saline. Then the dyestuff was removed by using an aqueous solution of ethanol (30%) containing 0.001N hydrochloric acid.
The absorptivity at 550 nm of the material was measured by the use of a microplate reader. The absorptivity of the treated cells was compared with the absorptivity of untreated cells to measure the IC50 value viz. the concentration of the test compound required to inhibit the growth of the cells by 50%.

[1] = tested on: Candida albicans ATCC 10231; experiment: Anti-bacterial activity, minimum inhibitory concentration by agar dilution method; format: cell-based; conditions: ATCC10231, pH=7.0
Description: (§1) Minimum inhibitory concentration (μg/ml) was measured by the agar dilution method using a medium (pH=7.0) which was prepared by dissolving Bactotryptone medium (3 g; commercial product of Difco, U.S.A.), meat extract (3 g), yeast extract (1 g), glucose (1 g) and agar (16 g) in water (1 l).

[2] = tested on: Pseudomonas aeruginosa Bin H No. 1; experiment: as above; format: cell-based; conditions: pH=7.0
Description: as §1

[3] = tested on: Enterococcus faecium ATCC 10541; experiment: as above; format: cell-based; conditions: ATCC10541, pH=7.0
Description: as §1

[4] = tested on: Salmonella typhi ATCC 9992; experiment: as above; format: cell-based; conditions: Salmonella enterica, read-out: Minimum inhibitory concentration
Description: as §1

[5] = tested on: Shigella sonnei ATCC 9290; experiment: as above; format: cell-based; conditions: ATCC9290, pH=7.0
Description: as §1

[6] = tested on: Staphylococcus aureus ATCC 6538P; experiment: as above; format: cell-based; conditions: ATCC6538P, pH=7.0
Description: as §1

[7] = tested on: Bacillus subtilis No. 10707; experiment: as above; format: cell-based; conditions: pH=7.0
Description: as §1

Escherichia coli ATCC 26 = experiment: as above; format: cell-based; conditions: ATCC26, pH=7.0
Description: as §1

[8] = tested on: Klebsiella pneumonia ATCC 10031; experiment: as above; format: cell-based; conditions: Klebsiella pneumoniae, ATCC10031, pH=7.0
Description: as §1

[9] = Solubility in various solvents; format: physicochemical; conditions: for Solubility in various solvents (soluble): organic solvents; for Solubility in various solvents (insoluble): water, n-hexane where named

Row | Compound | IC50 (MCF7 cells (ATCC HTB22)) [µg/mL] | MIC [1] [µg/mL] | MIC [2] [µg/mL] | MIC [3] [µg/mL] | MIC [4] [µg/mL] | MIC [5] [µg/mL] | MIC [6] [µg/mL] | MIC [7] [µg/mL] | MIC (Escherichia coli ATCC 26) [µg/mL] | MIC [8] [µg/mL] | Solubility in various solvents (soluble) [9] | Solubility in various solvents (insoluble) [9]
1 | CCCCC(C)/C=C(C)/C=C(\C)C(=O)NC1=CC(O)(/C=C/C=C/C=C/C(=O)NC2=C(O)CCC2=O)C2OC2C1=O (stereo not shown) [Manumycin, reference compound] | 8.3 (≈ 15.1 µM) | 21 (≈ 38.1 µM) | > 100 | 2.6 (≈ 4.72 µM) | > 100 | > 100 | 1.3 (≈ 2.36 µM) | 0.3 (≈ 0.545 µM) | > 100 | > 100 |  | 
2 | CCCCC(C)/C=C(\C)C(=O)NC1=CC(=O)C2OC2C1=O (stereo not shown) [UCF1-AX] | 18.9 (≈ 64.9 µM) | 10 (≈ 34.3 µM) | 83 (≈ 285 µM) | 10 (≈ 34.3 µM) | 21 (≈ 72.1 µM) | 10 (≈ 34.3 µM) | 10 (≈ 34.3 µM) | 1.3 (≈ 4.46 µM) | 21 (≈ 72.1 µM) | 21 (≈ 72.1 µM) | Soluble in chloroform, methanol and diethyl ether | Insoluble in water
3 | CCCCC(C)/C=C(\C)C(=O)NC1=CC(O)(/C=C/C=C/C=C/C(=O)NC2=C(O)CCC2=O)C2OC2C1=O (stereo not shown) [UCF1-A] | 12.5 (≈ 24.5 µM) | > 100 | > 100 | 10 (≈ 19.6 µM) | > 100 | > 100 | 2.6 (≈ 5.09 µM) | 10 (≈ 19.6 µM) | > 100 | > 100 | Soluble in chloroform, dimethylsulfoxide, ethyl acetate, methanol and acetone | Insoluble in n-hexane and water
4 | CCCCC(C)/C=C(C)/C=C/C(=O)NC1=CC(=O)C2OC2C1=O (stereo not shown) [UCF1-BX] | 7.5 (≈ 23.6 µM) | 42 (≈ 132 µM) | 83 (≈ 262 µM) | 0.65 (≈ 2.05 µM) | > 100 | > 100 | 8.3 (≈ 26.2 µM) | 0.16 (≈ 0.504 µM) | > 100 | > 100 | Soluble in chloroform, methanol and diethyl ether | Insoluble in water
5 | CCCCC(C)/C=C(C)/C=C/C(=O)NC1=CC(O)(/C=C/C=C/C=C/C(=O)NC2=C(O)CCC2=O)C2OC2C1=O (stereo not shown) [UCF1-B] | 7.3 (≈ 13.6 µM) | > 100 | > 100 | 10 (≈ 18.6 µM) | > 100 | > 100 | 2.6 (≈ 4.85 µM) | 1.3 (≈ 2.42 µM) | > 100 | > 100 | Soluble in chloroform, dimethylsulfoxide, ethyl acetate, methanol and acetone | Insoluble in n-hexane and water
